In patent US20040191115A1 (priority 2003, published 2004):
Values joined by “and” are separate entries in the source; they are usually repeats but may differ in a detail not shown here. Equal values may be shown once. Read-outs that look alike come from different tables or passages of the source.

Tests used:
[1] = test system: bacillus atrophaeus spores; conditions: 3.12 percent H2O2, no machine operation, without cartons; for average count of colony forming units for the time period / log of average count for the time period: mean of samples
Experimental: (§1) Studies were conducted to determine the microbial eradication on mandrels 34 that were subjected to vaporized sterilant introduced at the heaters 40. […] The efficacy of the mandrel sterilization was studied for both the mandrel caps 35 and the mandrel side tubes 37 (see FIG. 3).
(§2) Each of the studies was further carried out using a testing media of bacillus atrophaeus spores for inoculating the mandrels. The mandrels were inoculated by spraying, using an aerating spray bottle having a solution with a concentration of about 7 log bacillus spores. The mandrels were then allowed to air dry. Controls were swabbed using cotton swabs to assure that the mandrels were properly inoculated. Following the machine operating period of the test, the mandrels were swabbed and the bacillus spores transferred to an agar media for incubation of the spores (at 32° C. for 48 hours) and subsequent recovery.
In this part of the analysis, the form, fill and seal machine was operated without cartons and without indexing (rotation) of the mandrels.

[2] = test system: bacillus atrophaeus spores; conditions: 2.52 percent H2O2, with cartons; for average count of colony forming units for the time period / log of average count for the time period: mean of samples; for average count of colony forming units for the time period / log of average count for the time period / Log Red. (Avg): normal speed; for Average CFU/mL / Average CFU/mandrel / Log (of Average CFU/mandrel) / Result #1 CFU/mL / Result #2 CFU/mL: normal operating speed
Experimental: as §1, §2
The data was collected by taking swab samples at the mandrel cap (C) and on the mandrel side tubes (T). The mandrel side tube data is the sum of all of the side tubes.

[3] = time 0 min, swab site C (mandrel cap)
[4] = time 0 min, swab site T (mandrel side tubes)
[5] = time 10 min, swab site C (mandrel cap)
[6] = time 10 min, swab site T (mandrel side tubes)
[7] = time 20 min, swab site C (mandrel cap)
[8] = time 20 min, swab site T (mandrel side tubes)
[9] = time 30 min, swab site C (mandrel cap)
[10] = time 30 min, swab site T (mandrel side tubes)
[11] = time 40 min, swab site T (mandrel side tubes)

OO [hydrogen peroxide]
average count of colony forming units for the time period ([1]; time 0 min): 3.51E+05 CFU/mandrel | log of average count for the time period ([1]; time 0 min): 5.55 log | average count of colony forming units for the time period ([1]; time 15 min): 2.90E+05 CFU/mandrel | log of average count for the time period ([1]; time 15 min): 5.46 log | Average CFU/mL ([1]; time 15 min): 7.85E+04 CFU/mL and 6.65E+04 CFU/mL | Average CFU/mandrel ([1]; time 15 min): 3.14E+05 CFU/mandrel and 2.66E+05 CFU/mandrel | Log (of Average CFU/mandrel) ([1]; time 15 min): 5.50 Log and 5.42 Log | Result #1 CFU/mL ([1]; time 15 min): 7.80E+04 CFU/mL and 4.70E+04 CFU/mL | Result #2 CFU/mL ([1]; time 15 min): 7.90E+04 CFU/mL and 8.60E+04 CFU/mL | Log Red. (Avg.) ([1]; time 15 min relative to time zero): 0.08 Log | average count of colony forming units for the time period ([1]; time 30 min): 2.72E+05 CFU/mandrel | log of average count for the time period ([1]; time 30 min): 5.43 log | Log (of Average CFU/mandrel) ([1]; time 30 min): 5.47 Log and 5.28 Log and 5.49 Log | Result #1 CFU/mL ([1]; time 30 min): 7.40E+04 CFU/mL and 4.30E+04 CFU/mL and 7.80E+04 CFU/mL | Log Red. (Avg.) ([1]; time 30 min relative to time zero): 0.11 Log | average count of colony forming units for the time period ([2]; time 0 min, cap): 5.09E+05 CFU/mandrel | log of average count for the time period ([2]; time 0 min, cap): 5.71 log | average count of colony forming units for the time period ([2]; time 0 min, side tubes): 7.12E+05 CFU/mandrel | log of average count for the time period ([2]; time 0 min, side tubes): 5.85 log | Average CFU/mL [2, 3]: 1.32E+05 CFU/mL and 1.23E+05 CFU/mL | Average CFU/mandrel [2, 3]: 5.28E+05 CFU/mandrel and 4.90E+05 CFU/mandrel | Log (of Average CFU/mandrel) [2, 3]: 5.72 Log and 5.69 Log | Result #1 CFU/mL [2, 3]: 1.19E+05 CFU/mL and 1.30E+05 CFU/mL | Result #2 CFU/mL [2, 3]: 1.45E+05 CFU/mL and 1.15E+05 CFU/mL | Average CFU/mL [2, 4]: 1.83E+05 CFU/mL and 1.73E+05 CFU/mL | Average CFU/mandrel [2, 4]: 7.32E+05 CFU/mandrel and 6.92E+05 CFU/mandrel | Log (of Average CFU/mandrel) [2, 4]: 5.86 Log and 5.84 Log | Result #1 CFU/mL [2, 4]: 1.39E+05 CFU/mL and 1.71E+05 CFU/mL | Result #2 CFU/mL [2, 4]: 2.27E+05 CFU/mL and 1.75E+05 CFU/mL | average count of colony forming units for the time period ([2]; time 10 min, cap): 1.57E+05 CFU/mandrel | log of average count for the time period ([2]; time 10 min, cap): 5.20 log | average count of colony forming units for the time period ([2]; time 10 min, side tubes): 3.58E+05 CFU/mandrel | log of average count for the time period ([2]; time 10 min, side tubes): 5.55 log | Average CFU/mL [2, 5]: 3.35E+04 CFU/mL and 4.50E+04 CFU/mL | Average CFU/mandrel [2, 5]: 1.34E+05 CFU/mandrel and 1.80E+05 CFU/mandrel | Log (of Average CFU/mandrel) [2, 5]: 5.13 Log and 5.26 Log | Result #1 CFU/mL [2, 5]: 3.50E+04 CFU/mL and 4.40E+04 CFU/mL | Result #2 CFU/mL [2, 5]: 3.20E+04 CFU/mL and 4.60E+04 CFU/mL | Average CFU/mL [2, 6]: 9.25E+04 CFU/mL and 8.65E+04 CFU/mL | Average CFU/mandrel [2, 6]: 3.70E+05 CFU/mandrel and 3.46E+05 CFU/mandrel | Log (of Average CFU/mandrel) [2, 6]: 5.57 Log and 5.54 Log | Result #2 CFU/mL [2, 6]: 9.70E+04 CFU/mL and 6.70E+04 CFU/mL | Log Red. (Avg) ([2]; time 10 min relative to time zero, cap): 0.51 Log | Log Red. (Avg) ([2]; time 10 min relative to time zero, side tubes): 0.30 Log | average count of colony forming units for the time period ([2]; time 20 min, cap): 8.86E+04 CFU/mandrel | log of average count for the time period ([2]; time 20 min, cap): 4.95 log | average count of colony forming units for the time period ([2]; time 20 min, side tubes): 4.49E+05 CFU/mandrel | log of average count for the time period ([2]; time 20 min, side tubes): 5.65 log | Log (of Average CFU/mandrel) [2, 7]: 4.88 Log and 5.01 Log | Result #1 CFU/mL [2, 7]: 1.93E+04 CFU/mL and 2.82E+04 CFU/mL | Result #2 CFU/mL [2, 7]: 1.86E+04 CFU/mL and 2.25E+04 CFU/mL | Average CFU/mandrel [2, 8]: 5.58E+05 CFU/mandrel and 3.40E+05 CFU/mandrel | Log (of Average CFU/mandrel) [2, 8]: 5.75 Log and 5.53 Log | Log Red. (Avg) ([2]; time 20 min relative to time zero, cap): 0.76 Log | Log Red. (Avg) ([2]; time 20 min relative to time zero, side tubes): 0.20 Log | average count of colony forming units for the time period ([2]; time 30 min, cap): 4.39E+04 CFU/mandrel | log of average count for the time period ([2]; time 30 min, cap): 4.64 log | average count of colony forming units for the time period ([2]; time 30 min, side tubes): 2.49E+05 CFU/mandrel | log of average count for the time period ([2]; time 30 min, side tubes): 5.40 log | Average CFU/mandrel [2, 9]: 5.06E+04 CFU/mandrel and 3.72E+04 CFU/mandrel | Log (of Average CFU/mandrel) [2, 9]: 4.70 Log and 4.57 Log | Result #2 CFU/mL [2, 9]: 1.12E+04 CFU/mL and 1.04E+04 CFU/mL | Average CFU/mL [2, 10]: 6.25E+04 CFU/mL and 6.20E+04 CFU/mL | Average CFU/mandrel [2, 10]: 2.50E+05 CFU/mandrel and 2.48E+05 CFU/mandrel | Log (of Average CFU/mandrel) [2, 10]: 5.40 Log and 5.39 Log | Result #1 CFU/mL [2, 10]: 6.30E+04 CFU/mL and 5.10E+04 CFU/mL | Result #2 CFU/mL [2, 10]: 6.20E+04 CFU/mL and 7.30E+04 CFU/mL | Log Red. (Avg) ([2]; time 30 min relative to time zero, cap): 1.06 Log | Log Red. (Avg) ([2]; time 30 min relative to time zero, side tubes): 0.46 Log | average count of colony forming units for the time period ([2]; time 40 min, cap): 5.21E+03 CFU/mandrel | log of average count for the time period ([2]; time 40 min, cap): 3.72 log | average count of colony forming units for the time period ([2]; time 40 min, side tubes): 1.15E+05 CFU/mandrel | log of average count for the time period ([2]; time 40 min, side tubes): 5.06 log | Average CFU/mL [2, 11]: 2.71E+04 CFU/mL and 3.05E+04 CFU/mL | Average CFU/mandrel [2, 11]: 1.08E+05 CFU/mandrel and 1.22E+05 CFU/mandrel | Log (of Average CFU/mandrel) [2, 11]: 5.04 Log and 5.09 Log | Result #1 CFU/mL [2, 11]: 2.50E+04 CFU/mL and 2.89E+04 CFU/mL | Result #2 CFU/mL [2, 11]: 2.92E+04 CFU/mL and 3.21E+04 CFU/mL | Log Red. (Avg) ([2]; time 40 min relative to time zero, cap): 1.99 Log | Log Red. (Avg) ([2]; time 40 min relative to time zero, side tubes): 0.79 Log
